The structures appear in SMILES notation.

The conditions of the data set: pH 5.5.

Procedure: The fraction of the dose precipitating in the form of free base during dissolution is dependent on experimental factors such as stirring speed, which determines mixing kinetics of the highly supersaturated microenvironment solution into the bulk of the dissolution medium.
The dissolution studies were conducted using USP apparatus 2 in acetate buffer, pH 5.5 and 37° C.
The pH of the dissolution medium remained substantially constant at ˜5.5 until the end of the test.

`CN(C)Cc1nccn1-c1ccc(NC(=O)c2cc(C(F)(F)F)nn2-c2ccc3onc(N)c3c2)c(F)c1.Cl` [Factor Xa inhibitor]: the “concentration in the dissolution medium relative to saturation solubility at this pH” value is around 10 fold.

The record behind these values is patent US20050059719A1 (priority 2003, published 2005).
